Assay results taken from patent US12186311B2, “Antiproliferative compounds and second active agents for combined use” (Celgene Corporation, priority 2019, dated 2025).

Tests used:
[1] = system: non-selective α1 adrenergic receptor in rat cerebral cortex; experiment: α1 adrenergic receptor binding at 10 μM ([3H]prazosin); settings: inhibition of control [3H]prazosin binding
Procedure: (§1) α1 Adrenergic and Dopamine D2 Receptors. Methods: Binding and functional assays for al adrenergic and dopamine D2 receptors were performed by Eurofins Cerep according to their methods.
α1 Adrenergic Receptor. Binding at 10 μM. The binding assay evaluated the affinity of test article for the non-selective al adrenergic receptor in rat cerebral cortex. Membrane homogenates of cerebral cortex were incubated in duplicate for 60 minutes at room temperature with 0.25 nM [^3H]prazosin in the absence or presence of test articles at 10 μM. After the incubation period, samples were filtered through glass fiber filters, the filters dried and then counted for radioactivity using a scintillation counter. Results are expressed as mean percent inhibition of control radioligand binding.

[2] = target: T1, dopamine D2S receptor in transfected HEK-293 cells (Homo sapiens, UniProt P14416); experiment: Dopamine D2S receptor binding at 10 μM; settings: read-out: Dopamine D2S % Inh. (@10 uM)
T1 construct: host or cells: HEK-293
T1 sequence (P14416 1-414 isoform P14416-2): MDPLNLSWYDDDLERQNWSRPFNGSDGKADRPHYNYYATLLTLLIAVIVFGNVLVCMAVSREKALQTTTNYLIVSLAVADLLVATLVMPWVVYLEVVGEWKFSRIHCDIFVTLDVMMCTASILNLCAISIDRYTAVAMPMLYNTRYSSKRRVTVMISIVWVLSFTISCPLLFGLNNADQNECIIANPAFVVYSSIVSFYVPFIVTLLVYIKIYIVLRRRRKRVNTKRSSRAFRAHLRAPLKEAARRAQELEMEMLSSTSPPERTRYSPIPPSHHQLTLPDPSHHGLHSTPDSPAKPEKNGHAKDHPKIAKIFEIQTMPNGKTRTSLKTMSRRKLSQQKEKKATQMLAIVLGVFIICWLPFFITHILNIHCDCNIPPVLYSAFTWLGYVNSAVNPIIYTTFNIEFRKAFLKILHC
Procedure: as §1
Dopamine D2 Receptor. Binding at 10 μM. The binding assay evaluated the affinity of test articles for the dopamine D2 receptor in transfected human embryonic kidney (HEK)-293 cells. For determining the binding in the D2s receptor assay, test article was incubated with 0.3 nM [^3H] methylspiperone or 1 nM [^3H] 7-hydroxy-2-N,N-dipropylaminotetralin (7-OH-DPAT). [^3H] Methylspiperone at 0.3 nM also was used as control ligand in the D2L binding assay. Cell membrane homogenates were incubated in duplicate at room temperature for 60 minutes with ligand in the absence or presence of test articles at 10 μM. After the incubation period, samples were filtered through glass fiber filters, the filters dried and then counted for radioactivity using a scintillation counter. Results are expressed as mean percent inhibition of control radioligand binding.

[3] = system: AMO1-PR (pomalidomide resistant) cell line; experiment: Cell proliferation, combination with Compound 2, combination index (Calcusyn), AMO1-PR; format: cell-based; settings: 3 days
Procedure: (§2) AMO1 (parental) and AMO1-PR (pomalidomide resistant) cell lines were treated with various doses of Compound 2 in combination with increasing doses of an MEK inhibitor trametinib for 3 days. Cell proliferation was analyzed using thymidine incorporation assays. Combination index values were calculated by Calcusyn and values below 10^0 represented the synergy between the combination treatments. The results are shown in FIG. 4A (AMO1), FIG. 4B (AMO1 combination index), FIG. 4C (AMO1-PR), and FIG. 4D (AMO1-PR combination index), respectively.
(§3) AMO1 and AMO1-PR (pomalidomide resistant) cell lines were treated with increasing doses of Compound 2 in combination with a PLK1 inhibitor (BI2536). Changes in cell proliferation were studied in response to monotherapy and combinations at Day 3 post treatment. Combination Index was calculated using Calcusyn based method. Combination index values were calculated by Calcusyn and values below 10^0 represented the synergy between the combination treatments. PLK1 is one of the key target gene of MDMS8 (molecularly defined myeloma segment 8), a high risk cluster identified from myeloma genome project. The results are shown in FIG. 6A (AMO1), FIG. 6B (AMO1 combination index), FIG. 6C (AMO1-PR), and FIG. 6D (AMO1-PR combination index), respectively. Inhibition of MDMS8 target gene PLK1 with Compound 2 is synergistic in AMO1 and AMO1-PR cells.
(§4) AMO1 and AMO1-PR (pomalidomide resistant) cell lines were treated with increasing doses of Compound 2 in combination with an NEK2 inhibitor (JH295). Changes in cell proliferation were studied in response to monotherapy and combinations at Day 3 post treatment. Combination index values were calculated by Calcusyn and values below 10^0 represented the synergy between the combination treatments. NEK2 is one of the key target gene of MDMS8 (molecularly defined myeloma segment 8), a high risk cluster identified from myeloma genome project. The results are shown in FIG. 7A (AMO1 combination index) and FIG. 7B (AMO1-PR combination index), respectively. Inhibition of MDMS8 target gene NEK2 with Compound 2 is synergistic in AMO1 and AMO1-PR cells.
(§5) AMO1, AMO1-PR (pomalidomide resistant), K12PE and K12PE-PR (pomalidomide resistant) cell lines were treated with increasing doses of Compound 2 in combination with an AURKB inhibitor (AZD 1152). […] Combination index values were calculated by Calcusyn and values below […] represented the synergy between the combination treatments. […]
(§6) AMO1, AMO1-PR (pomalidomide resistant) cell lines were treated with increasing doses of Compound 2 in combination with a BIRC5 inhibitor (YM155). […] Combination index values were calculated by Calcusyn and values below 10^0 represented the synergy between the combination treatments. […]

[4] = system: K12PE-PR (pomalidomide resistant) cell line; experiment: Cell proliferation, combination with Compound 2, combination index (Calcusyn), K12PE-PR; format: cell-based; settings: 3 days
Procedure: (§7) K12PE (parental) and K12PE-PR (pomalidomide resistant) cell lines were treated with various doses of Compound 2 in combination with increasing doses of a BRD4 inhibitor JQ1 for 3 days. Cell proliferation was analyzed using thymidine incorporation assays. Combination index values were calculated by Calcusyn and values below 10^0 represented the synergy between the combination treatments. The results are shown in FIG. 3A (K12PE), FIG. 3B (K12PE combination index), FIG. 3C (K12PE-PR), and FIG. 3D (K12PE-PR combination index), respectively.
(§8) AMO1, AMO1-PR (pomalidomide resistant), K12PE and K12PE-PR (pomalidomide resistant) cell lines were treated with increasing doses of Compound 2 in combination with an AURKB inhibitor (AZD 1152). Changes in cell proliferation were studied in response to monotherapy and combinations at Day 3 post treatment. Combination index values were calculated by Calcusyn and values below […] represented the synergy between the combination treatments. AUKKB is one of the key target gene of MDMS8 (molecularly defined myeloma segment 8), a high risk cluster identified from myeloma genome project. The results are shown in FIG. 8A (AMO1 combination index), FIG. 8B (K12PE combination index), FIG. 8C (AMO1-PR combination index), and FIG. 8D (K12PE-PR combination index), respectively. […]

[5] = system: K12PE (parental) cell line; experiment: Cell proliferation, combination with Compound 2, combination index (Calcusyn), K12PE; format: cell-based; settings: 3 days
Procedure: as §7, §8

[6] = system: AMO1 (parental) cell line; experiment: Cell proliferation, combination with Compound 2, combination index (Calcusyn), AMO1; format: cell-based; settings: AMO1, 3 days
Procedure: as §2, §3, §4, §5, §6

OPM-2.P10 cells = experiment: 7 day combination assay (Annexin V/7-AAD flow cytometry, fractional product method), OPM.2-P10; format: cell-based; settings: OPM-2.P10, 7 day assay
Procedure: (§9) Additional second agents, including DNA methyltransferase inhibitors, EZH2 inhibitors, DOT1L inhibitors, and BET inhibitors were selected for combination studies with Compound 2 in relapsed refractory multiple myeloma. Five MM cell lines with acquired or inherent resistance to lenalidomide or pomalidomide were included in the studies (OPM.2-P10, H929-1051, KMS12BM PR, L363, and JJN3). The effect of Compound 2 in combination with these second agents on MM cells were assessed in a 7 day in vitro assay. The MM cells were seeded at densities according to the growth rate of each cell line with the aim of achieving 50-100K cells by Day 7. The assay was performed in a 96-well plate. All MM cell lines were cultured in an incubator at 37° C. with 5% CO2 using the indicated cell culture media containing 1×Penicillin-Streptomycin. The MM cells were primed for 3 days with these second agents at the single agent IC50 value. […] Compound 2 was added to the cells at a dose range of 30 μM-0.00018 μM, depending on the cell line, for a 8 point dose response curve. The cells were incubated at 37° C. for an additional 4 days. At the end of the 7 day treatment, the MM cells were stained with Annexin V and 7-AAD and analyzed on a flow cytometer. Live MM cells were identified as Annexin V and 7-AAD double negative cells. […]

H929-1051 cells = experiment: 7 day combination assay (Annexin V/7-AAD flow cytometry, fractional product method), H929-1051; format: cell-based; settings: H929-1051, 7 day assay
Procedure: as §9

H929 cell line = experiment: Thymidine incorporation, combination with Compound 2, combination index (Calcusyn), H929; format: cell-based; settings: H929, 3 days
Procedure: H929 cell line was treated with various doses of Compound 2 in combination with increasing doses of an EZH2 inhibitor UNC1999 for 3 days. Cell proliferation was analyzed using thymidine incorporation assays. Combination index values were calculated by Calcusyn and values below 10^0 represented the synergy between the combination treatments. The results are shown in FIG. 5A (H929) and FIG. 5B (H929 combination index).

[7] = system: acute myeloid leukemia (AML); settings: administered alone; cited from earlier work

N#Cc1ccc(N2CCN(Cc3ccc(COc4cccc5c4CN(C4CCC(=O)NC4=O)C5=O)cc3)CC2)c(F)c1 (racemic) [Compound 1, 4-(4-(4-(((2-(2,6-dioxopiperidin-3-yl)-1-oxoisoindolin-4-yl)oxy)methyl)benzyl)piperazin-1-yl)-3-fluorobenzonitrile]
Adrenergic α1 % Inh. (@10 uM) [1]: 67% | inhibition at 10 µM [2]: 55%

O=C1CCC(N2Cc3c(OCc4ccc(CN5CCN(c6ccc(F)cc6F)CC5)cc4)cccc3C2=O)C(=O)N1 (racemic) [Compound A, 3-(4-((4-((4-(2,4-difluorophenyl)piperazin-1-yl)methyl)benzyl)oxy)-1-oxoisoindolin-2-yl)piperidine-2,6-dione]
Adrenergic α1 % Inh. (@10 uM) [1]: 102% | inhibition at 10 µM [2]: 99%

CCN(CCCOc1ccc2c(Nc3cc(CC(=O)Nc4cccc(F)c4)[nH]n3)ncnc2c1)CCOP(=O)(O)O [AZD 1152]
synergy with Compound 2 (combination index) [3]: synergistic | synergy with Compound 2 (combination index) [4]: synergistic | synergy with Compound 2 (combination index) [5]: synergistic | synergy with Compound 2 (combination index) [6]: synergistic

N#Cc1ccc(N2CCN(Cc3ccc(COc4cccc5c4CN([C@H]4CCC(=O)NC4=O)C5=O)cc3)CC2)c(F)c1 [Compound 2, (S)-4-(4-(4-(((2-(2,6-dioxopiperidin-3-yl)-1-oxoisoindolin-4-yl)oxy)methyl)benzyl)piperazin-1-yl)-3-fluorobenzonitrile]
Adrenergic α1 % Inh. (@10 uM) [1]: 62% | inhibition at 10 µM [2]: 52%

Cn1cc(-c2cc(S(C)(=O)=O)ccc2OCC2CC2)c2ccccc2c1=O [Compound C, 4-[2-(cyclopropylmethoxy)-5-(methanesulfonyl)phenyl]-2-methylisoquinolin-1(2H)-one]
synergy in combination with Compound 2 (OPM-2.P10 cells): significant synergy | synergy in combination with Compound 2 (H929-1051 cells): significant synergy

Cc1sc2c(c1C)C(c1ccc(Cl)cc1)=N[C@@H](CC(=O)OC(C)(C)C)c1nnc(C)n1-2 [JQ1, (S)-tert-butyl 2-(4-(4-chlorophenyl)-2,3,9-trimethyl-6H-thieno[3,2-f][1,2,4]triazolo[4,3-a][1,4]diazepin-6-yl)acetate]
synergy with Compound 2 (combination index) [4]: synergistic activity with Compound 2 | synergy with Compound 2 (combination index) [5]: synergistic activity with Compound 2

CCCc1cc(C)[nH]c(=O)c1CNC(=O)c1cc(-c2ccc(N3CCN(C(C)C)CC3)nc2)cc2c1cnn2C(C)C [UNC1999, 1-Isopropyl-6-(6-(4-isopropylpiperazin-1-yl)pyridin-3-yl)-N-((6-methyl-2-oxo-4-propyl-1,2-dihydropyridin-3-yl)methyl)-1H-indazole-4-carboxamide]
synergy with Compound 2 (combination index) (H929 cell line): synergistic activity with Compound 2

CT-011: anti-PD-1 antibody, a humanized antibody
response in treating acute myeloid leukemia (AML) at relapse [7]: failed to show response
